We go through 2 compounds from patent publication US7259185B2 (priority 2005, dated 2007).

Where “and” joins values, the source holds several entries; their conditions need not be identical. Equal values may be shown once. Entries after “also recorded” stand apart in the source; their conditions may differ. Read-outs that look alike come from different tables or passages of the source.

The conditions of series [1]: in vivo; cited from earlier work.
The conditions of series [2]: pH buffer of pH between 8 and 9, room temperature. The text has this:
In a more preferred embodiment, pH of about 8 to 9, is provided. For example, a buffer close to a pH of about 8.3 can be used.

The format of series [3] is physicochemical. Particulars: 6 mg dose, no pepsin, after 24 hours. As for the experimental part:
A 250 mL volumetric flask was used to simulate the capacity of stomach gastric volume, and a pH 1.5 HCl buffer (0.8% NaCl, 0.04% CaCl2) was used for the simulated gastric fluid (SGF).

For series [4] the following is noted: buffer at pH 7, glycerin increased to 35% by volume.
The conditions of series [5]: 2 mg/mL in pH 7 phosphate buffer (100 mM), RT.
The conditions of series [6]: for Color change: 50° C.
For series [7] the following is noted: pH 9 carbonate buffer, after approximately 1 week at 50° C.

Turning to `CC(=O)CC(c1ccccc1)c1c(O)c2ccccc2oc1=O` (racemic) [warfarin], in series [1], the “apparent Vd” value is 0.13 L/kg.
Turning to `CC(=O)CC(c1ccccc1)c1c([O-])c2ccccc2oc1=O.[Na+]` (stereo not shown) [warfarin sodium, 4-hydroxy-3-(3-oxo-1-phenylbutyl)-2H-1-benzopyran-2one sodium salt], in series [2], the precipitation result is “free of precipitation for at least one month”. In series [3], the “precipitation of warfarin sodium in SGF” value is “precipitate out of solution”. Also, in series [4], the precipitation of warfarin result was “prevents precipitation”. The Warfarin concentration in series [5] (time 0.017 hr) is 1.846 mg/mL; in series [5] (time 0.083 hr), 1.819 mg/mL; in series [5] (time 0.167 hr), 1.796 mg/mL; in series [5] (time 0.333 hr) it was 1.847 mg/mL; in series [5] (time 0.5 hr), 1.844 mg/mL; in series [5] (time 1 hr), 1.8765 mg/mL. The Warfarin concentration in series [5] (time 3 hr) was found to be 1.858 mg/mL; in series [5] (time 5 hr) it was 1.804 mg/mL; in series [5] (time 10 hr) it was 1.822 mg/mL; in series [5] (time 13.5 hr), 2.0099 mg/mL; in series [5] (time 17.25 hr), 1.97 mg/mL; in series [5] (time 48 hr), 1.113 mg/mL. The Warfarin concentration in series [5] (time 192 hr, sodium salt) was 0.357 mg/mL and 0.362 mg/mL. Further, the Color change result in series [6] (1:1 mixture with ethanol, pH 8 buffer) is reported as “No color change”; in series [6] (1:1 mixture with glycerin, pH 8 buffer) it was “No color change”; in series [6] (Phosphate buffer pH 8 alone) it was “Light yellow”; in series [6] (pH 8 buffer with Liquid sugar (50% v/v), sodium salt) it was “slight yellow color change”; in series [6] (pH 8 buffer with Mannitol (5% w/v), sodium salt), “slight yellow color change; also recorded: Light yellow”; in series [6] (pH 8 buffer with Saccharin (0.5% w/v), sodium salt) it was “slight yellow color change; also recorded: Light yellow”. Besides, the Color change entry was “slight yellow color change; also recorded: Light yellow” in series [6] (pH 8 buffer with Sorbitol (50% v/v), sodium salt) and “slight yellowing” in series [7]. For the same compound, the “% degradation of warfarin sodium” value in series [6] (Phosphate buffer pH 8 alone, 1 month at 50° C.) is on record as 1.4%; in series [6] (pH 8 buffer with Liquid sugar (50% v/v), after 312 hr at 50° C.), 2.4 (after 312 hr) %; in series [6] (pH 8 buffer with Mannitol (5% w/v), after 384 hr at 50° C.), 1.9 (after 384 hr) %; in series [6] (pH 8 buffer with Saccharin (0.5% w/v), 1 month at 50° C.), 3.3%; in series [6] (pH 8 buffer with Sorbitol (50% v/v), 1 month at 50° C.) it was 2.9%; in series [6] (pH 8 buffer with TWEEN 80 (0.5% v/v), 1 month at 50° C.), 5.1%.
